These results are taken from patent publication US20220323406A1, “METHODS AND COMPOSITIONS FOR DIFFERENTIATING STEM CELLS” (Massachusetts Institute of Technology, priority 2019, published 2022).

Counter-ions that a name gives are not always drawn.

The test system of assay [1] is ENR+CD organoids (ISC to Paneth cell differentiation). The assay can be described thus: Primary screen: basal (non-stimulated) lysozyme secretion LYZ.NS, 2.5-D 384-well ENR+CD organoid differentiation. The format is cell-based, mouse. The settings on record: primary screen; for Z.LYZ.NS: standard z score. The text has this: (§1) High-throughput screening.
Assay [2] shares this test system. The assay can be described thus: Primary screen: CCh-stimulated lysozyme secretion LYZ.S, 2.5-D 384-well ENR+CD organoid differentiation. Format: cell-based, mouse. The settings on record: primary screen.
From the text: as §1

The test system of assay [3] is ENR+CD organoids. The assay can be described thus: Primary screen: ATP (CellTiter-Glo 3D, CTG) cell number/viability, 2.5-D 384-well ENR+CD organoids.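 For all read-outs here: compounds given at plating and again on day 3 over a 6-day differentiation from ENR+CV stem-cell-enriched precursors, ATP measured on day 6, plate median as control.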 The settings on record: primary screen; for Z.CTG: standard z score. For orientation: In ATP-based viability assays light output follows the ATP content of the culture.
The mark [4] stands for this setting: dose 0.08 uM, FC relative to plate median.
[5] abbreviates: dose 0.40 uM, FC relative to plate median.
The mark [6] stands for this setting: dose 2.00 uM, FC relative to plate median.
[7] abbreviates: dose 10.00 uM, FC relative to plate median.
The mark [8] stands for this setting: dose 0.08 uM, FC vs plate median.
Where [9] appears, read: dose 0.40 uM, FC vs plate median.
Setting [10] is: dose 2.00 uM, FC vs plate median.
[11] abbreviates: dose 10.00 uM, FC vs plate median.

Regarding `Cc1nn(-c2ccccc2)c(C)c1/C=N/N1CCN(Cc2ccccc2)CC1` [SANT-1], the Dose.FC.LYZ.NS in assay [1] (setting [4]) was 0.056 log2 fold change; in assay [1] (setting [5]), 0.000 log2 fold change; in assay [1] (setting [6]), 0.175 log2 fold change; in assay [1] (setting [7]) it was −0.049 log2 fold change. Moreover, the Z.LYZ.NS is reported as 0.485 in assay [1] (dose 0.08 uM), 0.002 in assay [1] (dose 0.40 uM), 1.528 in assay [1] (dose 2.00 uM) and −0.430 in assay [1] (dose 10.00 uM). The Dose.FC.LYZ.S is 0.112 log2 fold change in assay [2] (setting [4]), 0.024 log2 fold change in assay [2] (setting [5]), 0.101 log2 fold change in assay [2] (setting [6]) and −0.120 log2 fold change in assay [2] (setting [7]). The Dose.FC.CTG in assay [3] (setting [4]) was 0.308 log2 fold change; in assay [3] (setting [5]) it was 0.078 log2 fold change; in assay [3] (setting [6]) it was 0.137 log2 fold change; in assay [3] (setting [7]) it was −0.042 log2 fold change. Besides, the Z.CTG is recorded as 0.736 in assay [3] (dose 0.08 uM), 0.186 in assay [3] (dose 0.40 uM), 0.327 in assay [3] (dose 2.00 uM) and −0.100 in assay [3] (dose 10.00 uM).
For `CO[C@H]1C[C@@H]2CC[C@@H](C)[C@@](O)(O2)C(=O)C(=O)N2CCCC[C@H]2C(=O)O[C@H]([C@H](C)C[C@@H]2CC[C@@H](OC(=O)C(C)(CO)CO)[C@H](OC)C2)CC(=O)[C@H](C)/C=C(\C)[C@@H](O)[C@@H](OC)C(=O)[C@H](C)C[C@H](C)/C=C/C=C/C=C/1C` [Temsirolimus (CCI-779, NSC 683864)], the Dose.FC.LYZ.NS in assay [1] (setting [4]) is given as 0.091 log2 fold change; in assay [1] (dose 0.40 uM), 0.088 log2 fold change; in assay [1] (dose 2.00 uM) it was 0.172 log2 fold change; in assay [1] (dose 10.00 uM), 0.119 log2 fold change. Moreover, in assay [1] (dose 0.08 uM), the Z.LYZ.NS is on record as 0.790. The figures for the “Z.LYZ.NS (standard z score)” value in assay [1] (dose 0.40 uM), in assay [1] (dose 2.00 uM) and in assay [1] (dose 10.00 uM) were 0.763, 1.494 and 1.035, respectively. The Dose.FC.LYZ.S in assay [2] (setting [4]) is recorded as 0.082 log2 fold change; in assay [2] (dose 0.40 uM), 0.152 log2 fold change; in assay [2] (dose 2.00 uM), 0.132 log2 fold change; in assay [2] (dose 10.00 uM) it was 0.153 log2 fold change. Also, the Dose.FC.CTG in assay [3] (setting [4]) is given as 0.514 log2 fold change; in assay [3] (dose 0.40 uM), 0.583 log2 fold change; in assay [3] (dose 2.00 uM), 0.578 log2 fold change; in assay [3] (dose 10.00 uM), 0.200 log2 fold change. Further, in assay [3] (dose 0.08 uM), the Z.CTG is on record as 1.228. Besides, the “Z.CTG (standard z score)” value in assay [3] (dose 0.40 uM) is 1.393; in assay [3] (dose 2.00 uM), 1.382; in assay [3] (dose 10.00 uM), 0.478.
Consider `CC(C)(Cc1ccc2ccccc2c1)NC[C@@H](O)COc1cccc(Cl)c1C#N` [NPS-2143], for which the Z.LYZ.NS is on record as 1.413 in assay [1] (dose 0.08 uM), −0.416 in assay [1] (dose 0.40 uM), −0.674 in assay [1] (dose 2.00 uM) and −0.597 in assay [1] (dose 10.00 uM). For the same compound, the Dose.FC.LYZ.NS is 0.162 log2 fold change in assay [1] (setting [8]), −0.048 log2 fold change in assay [1] (setting [9]), −0.077 log2 fold change in assay [1] (setting [10]) and −0.069 log2 fold change in assay [1] (setting [11]). For the same compound, the Dose.FC.LYZ.S in assay [2] (setting [8]) is reported as 0.147 log2 fold change; in assay [2] (setting [9]), −0.062 log2 fold change; in assay [2] (setting [10]), −0.161 log2 fold change; in assay [2] (setting [11]), −0.116 log2 fold change. The Z.CTG is 0.356 in assay [3] (dose 0.08 uM), −0.466 in assay [3] (dose 0.40 uM), −0.587 in assay [3] (dose 2.00 uM) and −0.282 in assay [3] (dose 10.00 uM). For the same compound, the Dose.FC.CTG is 0.149 log2 fold change in assay [3] (setting [8]), −0.195 log2 fold change in assay [3] (setting [9]), −0.246 log2 fold change in assay [3] (setting [10]) and −0.118 log2 fold change in assay [3] (setting [11]).
In the case of `CCOC(=O)N1CCC(=C2c3ccc(Cl)cc3CCc3cccnc32)CC1` [Loratadine], the “Dose.FC.LYZ.NS (log2 fold change)” value is 0.011 in assay [1] (dose 0.08 uM), −0.001 in assay [1] (dose 0.40 uM), −0.108 in assay [1] (dose 2.00 uM) and −0.101 in assay [1] (dose 10.00 uM). The “Z.LYZ.NS (standard z score)” value in assay [1] (dose 0.08 uM) is 0.093; in assay [1] (dose 0.40 uM), −0.005; in assay [1] (dose 2.00 uM), −0.938; in assay [1] (dose 10.00 uM), −0.881. Further, the “Dose.FC.LYZ.S (log2 fold change)” value is reported as −0.076 in assay [2] (dose 0.08 uM), 0.011 in assay [2] (dose 0.40 uM), −0.148 in assay [2] (dose 2.00 uM) and −0.148 in assay [2] (dose 10.00 uM). The “Dose.FC.CTG (log2 fold change)” value in assay [3] (dose 0.08 uM) is listed as −0.292; in assay [3] (dose 0.40 uM), 0.145; in assay [3] (dose 2.00 uM), −0.204; in assay [3] (dose 10.00 uM) it was −0.120.
Take `Cc1c(-c2ccc(O)cc2)n(Cc2ccc(OCCN3CCCCCC3)cc2)c2ccc(O)cc12` [Bazedoxifene HCl]: the Dose.FC.LYZ.NS is 0.159 log2 fold change in assay [1] (dose 0.08 uM), 0.026 log2 fold change in assay [1] (dose 0.40 uM), −0.146 log2 fold change in assay [1] (dose 2.00 uM) and −0.280 log2 fold change in assay [1] (dose 10.00 uM). Further, the “Z.LYZ.NS (standard z score)” value was 1.386 in assay [1] (dose 0.08 uM), 0.229 in assay [1] (dose 0.40 uM), −1.267 in assay [1] (dose 2.00 uM) and −2.442 in assay [1] (dose 10.00 uM). Further, the Dose.FC.LYZ.S is 0.096 log2 fold change in assay [2] (dose 0.08 uM), 0.065 log2 fold change in assay [2] (dose 0.40 uM), −0.189 log2 fold change in assay [2] (dose 2.00 uM) and −0.361 log2 fold change in assay [2] (dose 10.00 uM). Also, the Dose.FC.CTG is 0.422 log2 fold change in assay [3] (dose 0.08 uM), 0.365 log2 fold change in assay [3] (dose 0.40 uM), −0.780 log2 fold change in assay [3] (dose 2.00 uM) and −1.148 log2 fold change in assay [3] (dose 10.00 uM).
On to `O=C(Nc1cc(C(F)(F)F)ccc1N1CCCCC1)c1ccncc1` [SRPIN340], for which the Dose.FC.LYZ.NS stood at 0.115 log2 fold change in assay [1] (setting [4]), 0.040 log2 fold change in assay [1] (setting [5]), 0.097 log2 fold change in assay [1] (setting [6]) and 0.022 log2 fold change in assay [1] (setting [7]). Further, the Z.LYZ.NS was determined as 1.004 in assay [1] (dose 0.08 uM), 0.348 in assay [1] (dose 0.40 uM), 0.846 in assay [1] (dose 2.00 uM) and 0.192 in assay [1] (dose 10.00 uM). Further, the Dose.FC.LYZ.S in assay [2] (setting [4]) was determined as 0.112 log2 fold change; in assay [2] (setting [5]), 0.098 log2 fold change; in assay [2] (setting [6]), 0.100 log2 fold change; in assay [2] (setting [7]), 0.078 log2 fold change. For the same compound, the Dose.FC.CTG in assay [3] (setting [4]) was determined as 0.421 log2 fold change; in assay [3] (setting [5]) it was 0.445 log2 fold change; in assay [3] (setting [6]) it was 0.453 log2 fold change; in assay [3] (setting [7]) it was 0.467 log2 fold change. Moreover, the Z.CTG in assay [3] (dose 0.08 uM) is listed as 1.005; in assay [3] (dose 0.40 uM), 1.063; in assay [3] (dose 2.00 uM), 1.083; in assay [3] (dose 10.00 uM) it was 1.115.
Take `O=C(NCc1ccccc1)c1csc(Nc2ccncn2)n1` [Thiazovivin]: the Dose.FC.LYZ.NS is on record as 0.090 log2 fold change in assay [1] (dose 0.08 uM), 0.070 log2 fold change in assay [1] (dose 0.40 uM), 0.024 log2 fold change in assay [1] (dose 2.00 uM) and −0.069 log2 fold change in assay [1] (dose 10.00 uM). Also, the “Z.LYZ.NS (standard z score)” value is 0.780 in assay [1] (dose 0.08 uM), 0.611 in assay [1] (dose 0.40 uM), 0.205 in assay [1] (dose 2.00 uM) and −0.605 in assay [1] (dose 10.00 uM). Besides, the Dose.FC.LYZ.S is reported as 0.142 log2 fold change in assay [2] (dose 0.08 uM), 0.060 log2 fold change in assay [2] (dose 0.40 uM), 0.064 log2 fold change in assay [2] (dose 2.00 uM) and 0.037 log2 fold change in assay [2] (dose 10.00 uM). Further, the Dose.FC.CTG came out at 0.141 log2 fold change in assay [3] (dose 0.08 uM), 0.113 log2 fold change in assay [3] (dose 0.40 uM), 0.312 log2 fold change in assay [3] (dose 2.00 uM) and 0.189 log2 fold change in assay [3] (dose 10.00 uM). Further, the “Z.CTG (standard z score)” value in assay [3] (dose 0.08 uM) worked out at 0.337; in assay [3] (dose 0.40 uM), 0.271; in assay [3] (dose 2.00 uM), 0.746; in assay [3] (dose 10.00 uM) it was 0.451.
